Measurements taken from the supplement of paper PMC8967900.

How the values were obtained:
Experiment in all cases: selective drug sensitivity score (sDSS, relative to normal bone marrow) (sDSS (score)); higher = more potent and effective on the cell line relative to normal bone marrow cells
Details in all cases: 72 h
COG-LL-319h = test system: COG-LL-319h
MN-60 = test system: MN-60
NALM-6 = test system: NALM-6
MHH-CALL-4 = test system: MHH-CALL-4
CCRF-HSB2 = test system: CCRF-HSB2
MOLT-14 = test system: MOLT-14
REH = test system: REH
DND-41 = test system: DND-41
NALM-16 = test system: NALM-16
KASUMI-10 = test system: KASUMI-10
MOLT-16 = test system: MOLT-16
SUP-B15 = test system: SUP-B15
HPB-ALL = test system: HPB-ALL
TANOUE = test system: TANOUE
SEM cells = test system: SEM cells
NALL-1 = test system: NALL-1
COG-LL-332h = test system: COG-LL-332h
CCRF-CEM = test system: CCRF-CEM
LC4-1 = test system: LC4-1
KASUMI-2 = test system: KASUMI-2
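Also: ALL cell lines in 384-well plates, five doses spanning 10,000-fold, each plate scaled between vehicle and 100 µmol/L benzalkonium chloride controls, sDSS an adapted area-under-curve metric.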

Compound | selective drug sensitivity score (COG-LL-319h) | selective drug sensitivity score (MN-60) | selective drug sensitivity score (NALM-6) | selective drug sensitivity score (MHH-CALL-4) | selective drug sensitivity score (CCRF-HSB2) | selective drug sensitivity score (MOLT-14) | selective drug sensitivity score (REH) | selective drug sensitivity score (DND-41) | selective drug sensitivity score (NALM-16) | selective drug sensitivity score (KASUMI-10) | selective drug sensitivity score (MOLT-16) | selective drug sensitivity score (SUP-B15) | selective drug sensitivity score (HPB-ALL) | selective drug sensitivity score (TANOUE) | selective drug sensitivity score (SEM cells) | selective drug sensitivity score (NALL-1) | selective drug sensitivity score (COG-LL-332h) | selective drug sensitivity score (CCRF-CEM) | selective drug sensitivity score (LC4-1) | selective drug sensitivity score (KASUMI-2)
CCS(=O)(=O)Nc1ccc(Oc2ccc(F)cc2F)c(-c2cn(C)c(=O)c3[nH]ccc23)c1 [Mivebresib] (top concentration 10000 nM) | 7.7 | 8.2 | 6 | 12.5 | 1.3 | 2.7 | -1.8 | 1.5 | 0.5 | 10.9 | 13.1 | 7.8 | 1.9 | -12 | 16 | 0.6 | -3.9 | 1.5 | 8.9 | -14.8
CCCCCCCCCCCCCCCCCCOP(=O)([O-])OC1CC[N+](C)(C)CC1 [Perifosine] (top concentration 2500 nM) | -0.26 | -0.36 | -0.36 | -0.16 | -0.36 | -0.36 | -0.36 | -0.36 | -0.36 | -0.36 | -0.36 | 1.04 | 3.64 | -0.36 | -0.36 | -0.36 | -0.36 | -0.16 | 4.04 | 8.74
O=C(NOCCO)c1ccc2cncn2c1Nc1ccc(I)cc1F [GDC-0623] (top concentration 2500 nM) | -2.1 | -3.4 | 3.8 | -2.1 | 0.8 | -1.6 | -3.4 | 0.2 | 0.1 | -3.4 | -1.6 | -3 | 3.6 | -3.4 | -3.4 | -0.5 | -1.8 | -1 | -2.3 | 0.3
C=CC(=O)Nc1cccc(Nc2nc(Nc3ccc(N4CCN(C(C)=O)CC4)cc3OC)ncc2C(F)(F)F)c1 [Rociletinib] (top concentration 10000 nM) | 0.24 | -0.76 | 4.94 | 2.14 | 1.24 | 2.54 | 0.84 | -0.56 | 4.04 | 6.94 | 2.04 | 1.44 | 1.74 | -3.16 | 6.34 | 3.14 | 1.84 | 2.44 | 3.94 | -2.46
Cc1nc2cccc(N)c2c(=O)n1C1CCC(=O)NC1=O (stereo not given) [Avadomide (CC122)] (top concentration 10000 nM) | 0 | 2.3 | 0 | 3.9 | 0 | 0 | 3.6 | 0 | 0 | 2.3 | 0 | 0 | 0 | 0 | 0.9 | 0 | 0 | 0.9 | 3.5 | 0
CC[C@@H]1[C@H](F)C(=O)N[C@@H]1COc1nccc2cc(C(N)=O)c(OC)cc12 (top concentration 10000 nM) | 2.88 | 5.88 | 4.48 | -0.92 | 1.88 | 1.38 | -1.32 | -1.32 | -1.32 | 3.68 | 0.98 | 0.98 | -1.32 | -0.22 | 1.48 | -1.32 | -0.42 | 1.58 | 0.08 | -1.32
Cc1ccc(NS(=O)(=O)c2cccc(C#N)c2)c2[nH]cc(C#N)c12 [E7820] (top concentration 50000 nM) | 18 | -1.88 | 19.2 | 7.62 | 18 | 21.3 | 13.7 | 9.82 | 1.82 | 4.62 | 22.6 | 8.72 | 11 | -6.28 | 19.5 | 6.42 | 22.1 | 9.12 | 11.8 | 5.82
CNC(=O)[C@@H](NC(=O)[C@H](CC(C)C)[C@H](O)C(=O)NO)C(C)(C)C [Marimastat] (top concentration 10000 nM) | -1.28 | 1.02 | -1.28 | 0.92 | -0.78 | 2.92 | -1.28 | 0.12 | 4.22 | 0.22 | 2.82 | 4.52 | -1.08 | -1.28 | -1.08 | 4.12 | -0.18 | -0.48 | -1.28 | -0.98
CC(=O)O[C@H]1C(=O)[C@@]2(C)[C@H]([C@H](OC(=O)c3ccccc3)[C@]3(O)C[C@H](OC(=O)[C@H](O)[C@@H](NC(=O)c4ccccc4)c4ccccc4)C(C)=C1C3(C)C)[C@]1(OC(C)=O)CO[C@@H]1C[C@@H]2O [Paclitaxel] (top concentration 1000 nM) | 21.5 | -0.36 | 16.7 | 7.24 | 18.8 | 19 | 23.1 | 2.04 | 14.1 | 11.5 | 21.7 | 21.1 | 14.1 | -10.8 | 21.3 | 12.2 | 20.5 | 18.3 | 23 | 18.3
